Data set [1] in a line: Solubility in water (observation during purification). The data set is classed as physicochemical.
The next data set has as its target T1, HDAC6 (Homo sapiens, UniProt Q9UBN7).
T1 construct: purchased BPS Bioscience 50006
T1 sequence (Q9UBN7 1-1215): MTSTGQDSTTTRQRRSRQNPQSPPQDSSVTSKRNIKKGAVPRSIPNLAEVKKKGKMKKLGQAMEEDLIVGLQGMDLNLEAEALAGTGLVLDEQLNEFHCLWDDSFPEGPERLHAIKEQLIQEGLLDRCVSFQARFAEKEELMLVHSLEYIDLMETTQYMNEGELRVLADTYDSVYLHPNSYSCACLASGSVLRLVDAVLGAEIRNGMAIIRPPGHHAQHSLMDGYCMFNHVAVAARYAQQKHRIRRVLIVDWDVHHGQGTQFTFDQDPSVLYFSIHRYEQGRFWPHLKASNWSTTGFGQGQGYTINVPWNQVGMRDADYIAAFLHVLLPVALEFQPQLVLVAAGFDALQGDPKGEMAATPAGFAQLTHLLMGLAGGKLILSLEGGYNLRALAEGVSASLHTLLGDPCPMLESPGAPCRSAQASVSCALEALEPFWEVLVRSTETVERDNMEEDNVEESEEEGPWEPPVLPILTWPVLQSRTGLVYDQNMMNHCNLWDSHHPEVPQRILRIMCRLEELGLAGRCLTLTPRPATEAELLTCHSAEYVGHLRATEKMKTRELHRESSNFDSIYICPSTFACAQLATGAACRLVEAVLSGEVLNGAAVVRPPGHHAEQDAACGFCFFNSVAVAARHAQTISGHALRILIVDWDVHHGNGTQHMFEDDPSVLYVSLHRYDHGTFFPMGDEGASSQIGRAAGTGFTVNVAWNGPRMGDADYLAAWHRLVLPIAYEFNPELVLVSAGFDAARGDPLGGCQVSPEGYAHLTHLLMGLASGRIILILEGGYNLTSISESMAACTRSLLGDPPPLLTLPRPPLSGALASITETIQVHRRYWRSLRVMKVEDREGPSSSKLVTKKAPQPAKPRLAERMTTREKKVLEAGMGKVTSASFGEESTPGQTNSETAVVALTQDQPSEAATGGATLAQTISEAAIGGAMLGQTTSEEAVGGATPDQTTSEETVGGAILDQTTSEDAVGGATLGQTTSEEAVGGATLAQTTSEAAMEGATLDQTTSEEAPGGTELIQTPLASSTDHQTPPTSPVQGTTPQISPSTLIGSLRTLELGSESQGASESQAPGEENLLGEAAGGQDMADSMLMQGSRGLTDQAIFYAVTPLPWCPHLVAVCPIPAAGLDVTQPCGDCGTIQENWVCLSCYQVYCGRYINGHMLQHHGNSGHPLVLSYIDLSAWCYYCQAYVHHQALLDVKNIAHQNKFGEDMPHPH
The data set can be described thus: HDAC-Glo I/II assay, HDAC6. The conditions noted are these: recombinant human HDAC6, HDAC-Glo; read-out: pIC50 HDAC6 Glo (converted). The data set is classed as biochemical.

Another data set deals with T2, HDAC8 (Homo sapiens, UniProt Q9BY41).
T2 sequence (Q9BY41 1-377): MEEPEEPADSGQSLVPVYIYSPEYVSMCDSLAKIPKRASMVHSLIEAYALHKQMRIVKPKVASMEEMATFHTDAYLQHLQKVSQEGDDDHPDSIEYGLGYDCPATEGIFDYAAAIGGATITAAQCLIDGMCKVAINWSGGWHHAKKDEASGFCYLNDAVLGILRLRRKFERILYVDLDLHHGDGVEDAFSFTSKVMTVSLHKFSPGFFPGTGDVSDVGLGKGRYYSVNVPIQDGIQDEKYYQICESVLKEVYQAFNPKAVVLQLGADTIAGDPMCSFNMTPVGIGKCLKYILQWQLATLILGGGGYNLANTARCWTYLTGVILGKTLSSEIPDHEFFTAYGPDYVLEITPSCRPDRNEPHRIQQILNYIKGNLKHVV
The data set can be described thus: HDAC-Glo I/II assay, HDAC8. It counts as biochemical. More on the design: purchased BPS Bioscience 50008. The conditions noted are these: recombinant human HDAC8, HDAC-Glo; read-out: pIC50 HDAC8 Glo (converted).

In the next data set the target is T3, HDAC1 (Homo sapiens, UniProt Q13547).
T3 construct: purchased BPS Bioscience 50051
T3 sequence (Q13547 whole entry): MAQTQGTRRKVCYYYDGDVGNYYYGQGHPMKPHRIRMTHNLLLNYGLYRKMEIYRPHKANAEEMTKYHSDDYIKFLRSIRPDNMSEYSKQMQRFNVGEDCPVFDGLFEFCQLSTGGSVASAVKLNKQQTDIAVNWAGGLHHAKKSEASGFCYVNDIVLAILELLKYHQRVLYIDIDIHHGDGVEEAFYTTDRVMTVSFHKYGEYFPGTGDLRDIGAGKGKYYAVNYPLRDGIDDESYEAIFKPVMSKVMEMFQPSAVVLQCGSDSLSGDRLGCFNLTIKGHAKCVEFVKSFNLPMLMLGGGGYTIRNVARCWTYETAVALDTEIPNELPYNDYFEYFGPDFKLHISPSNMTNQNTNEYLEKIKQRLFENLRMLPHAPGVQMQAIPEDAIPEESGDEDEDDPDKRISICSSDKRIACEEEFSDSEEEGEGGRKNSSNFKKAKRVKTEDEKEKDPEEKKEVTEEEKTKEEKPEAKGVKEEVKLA
The data set can be described thus: HDAC-Glo I/II assay, HDAC1. It counts as biochemical. The note with it: recombinant human HDAC1, HDAC-Glo; read-out: pIC50 HDAC1 Glo (converted).

Another data set deals with T4, HDAC2 (Homo sapiens, UniProt Q92769).
T4 construct: purchased BPS Bioscience 50002
T4 sequence (Q92769 whole entry): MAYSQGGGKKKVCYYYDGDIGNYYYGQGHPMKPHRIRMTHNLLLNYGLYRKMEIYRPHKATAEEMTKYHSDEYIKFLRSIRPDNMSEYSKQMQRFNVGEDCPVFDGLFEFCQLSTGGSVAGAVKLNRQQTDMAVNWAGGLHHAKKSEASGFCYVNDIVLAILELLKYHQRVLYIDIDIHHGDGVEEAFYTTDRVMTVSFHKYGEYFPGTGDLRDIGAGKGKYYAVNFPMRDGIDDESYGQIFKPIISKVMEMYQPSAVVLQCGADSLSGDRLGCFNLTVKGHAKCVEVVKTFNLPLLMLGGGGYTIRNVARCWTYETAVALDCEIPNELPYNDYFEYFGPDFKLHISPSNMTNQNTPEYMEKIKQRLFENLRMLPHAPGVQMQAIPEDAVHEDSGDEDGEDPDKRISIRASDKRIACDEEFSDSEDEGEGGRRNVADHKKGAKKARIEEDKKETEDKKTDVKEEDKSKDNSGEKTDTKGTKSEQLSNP
The data set can be described thus: HDAC-Glo I/II assay, HDAC2. It counts as biochemical. The conditions noted are these: recombinant human HDAC2, HDAC-Glo; read-out: pIC50 HDAC2 Glo (converted).

Data set [2] deals with T5, HDAC6 (2nd catalytic domain)-nanoluciferase fusion in HeLa cells (Homo sapiens, UniProt Q9UBN7).
T5 sequence (Q9UBN7 482-800 limits assumed): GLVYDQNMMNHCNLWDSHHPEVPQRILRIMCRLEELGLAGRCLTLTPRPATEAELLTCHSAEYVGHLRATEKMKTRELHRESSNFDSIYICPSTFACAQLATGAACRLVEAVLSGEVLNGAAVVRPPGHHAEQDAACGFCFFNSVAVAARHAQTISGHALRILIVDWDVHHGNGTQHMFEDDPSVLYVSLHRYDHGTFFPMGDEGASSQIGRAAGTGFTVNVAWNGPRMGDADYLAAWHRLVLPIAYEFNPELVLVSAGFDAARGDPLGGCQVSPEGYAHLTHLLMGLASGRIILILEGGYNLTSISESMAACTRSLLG
The data set can be described thus: BRET intracellular target engagement assay, HDAC6. Background: In BRET a luciferase serves as donor, and the signal depends on an acceptor being close.

A further data set concerns the target T6, HDAC3/NcoR2 complex (Homo sapiens, UniProt O15379).
T6 construct: purchased BPS Bioscience 50003
In words: HDAC-Glo I/II assay, HDAC3/NcoR2 complex. The data set is classed as biochemical. The note with it: recombinant human HDAC3/NcoR2 complex, read-out: pIC50 HDAC3 Glo (converted).

For data set [3], the target named is T7, HDAC10-nanoluciferase fusion in HeLa cells (Homo sapiens, UniProt Q969S8).
T7 sequence (Q969S8 1-669): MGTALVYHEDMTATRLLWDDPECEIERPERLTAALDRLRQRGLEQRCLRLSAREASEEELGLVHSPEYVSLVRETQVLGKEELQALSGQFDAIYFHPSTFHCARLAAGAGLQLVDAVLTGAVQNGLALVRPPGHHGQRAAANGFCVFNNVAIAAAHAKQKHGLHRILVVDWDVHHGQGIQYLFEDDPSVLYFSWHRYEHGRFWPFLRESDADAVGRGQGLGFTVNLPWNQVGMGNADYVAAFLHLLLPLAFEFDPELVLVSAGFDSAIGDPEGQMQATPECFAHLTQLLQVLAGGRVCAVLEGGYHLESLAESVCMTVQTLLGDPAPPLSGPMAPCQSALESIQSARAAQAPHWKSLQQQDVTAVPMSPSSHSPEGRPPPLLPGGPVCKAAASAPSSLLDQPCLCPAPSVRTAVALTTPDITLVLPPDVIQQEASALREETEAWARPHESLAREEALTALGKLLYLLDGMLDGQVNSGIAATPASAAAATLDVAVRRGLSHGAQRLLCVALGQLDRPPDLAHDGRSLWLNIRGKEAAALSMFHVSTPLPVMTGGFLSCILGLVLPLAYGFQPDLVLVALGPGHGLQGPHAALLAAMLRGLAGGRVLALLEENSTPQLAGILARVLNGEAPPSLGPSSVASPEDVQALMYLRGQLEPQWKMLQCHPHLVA
The data set can be described thus: BRET intracellular target engagement assay, HDAC10. The note with it: for HDAC10/6 fold selectivity (BRET): HDAC10 over HDAC6, from BRET.

The next data set addresses T8, TwinStrep-GST-HDAC10 (Homo sapiens, UniProt Q969S8).
T8 construct: made in house; host or cells: Sf21 insect cells (baculovirus, pFastBac1)
T8 sequence (Q969S8 1-669): T7 sequence (Q969S8 1-669)
In words: HDAC10 TR-FRET assay (Tubastatin-AF647-Tracer displacement). It counts as binding. The note with it: TR-FRET, 60 min at rt; read-out: pIC50 HDAC10 FRET (converted). On the technique in general: Time-resolved FRET reads energy transfer from a long-lived donor to a nearby acceptor.

Data set [4] can be described thus: Stability on exposure to air (observation). The data set is classed as physicochemical. The conditions noted are these: especially in solution.

pIC50: −log10 of the molar value.

T6 sequence (O15379 whole entry): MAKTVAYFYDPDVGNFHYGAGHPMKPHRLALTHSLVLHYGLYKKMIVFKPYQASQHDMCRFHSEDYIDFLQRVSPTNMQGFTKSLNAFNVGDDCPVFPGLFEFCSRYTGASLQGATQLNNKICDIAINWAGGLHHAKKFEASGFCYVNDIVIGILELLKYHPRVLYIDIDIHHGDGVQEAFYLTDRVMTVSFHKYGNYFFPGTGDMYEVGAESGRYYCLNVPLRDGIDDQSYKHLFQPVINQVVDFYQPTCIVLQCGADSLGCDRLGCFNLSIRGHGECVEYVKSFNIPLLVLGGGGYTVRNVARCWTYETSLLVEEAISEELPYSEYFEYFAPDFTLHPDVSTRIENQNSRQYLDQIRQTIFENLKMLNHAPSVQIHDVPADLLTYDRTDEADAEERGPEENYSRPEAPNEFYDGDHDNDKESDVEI
T6 sequence (Q9Y618 395-489 partner limits assumed): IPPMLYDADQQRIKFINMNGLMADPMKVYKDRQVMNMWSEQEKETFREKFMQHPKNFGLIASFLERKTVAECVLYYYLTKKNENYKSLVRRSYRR

The pIC50 is the IC50 on a negative log10 scale, so that one unit is a factor of ten. Regarding `C[N+](C)(CCCC(=O)[N-]O)CCNC(=O)c1ccccc1` [DKFZ-777, (4-((2-Benzamidoethyl)dimethylammonio)butanoyl)(hydroxy)amide], the solubility in water result in [1] was “poorly soluble in water”. For the same molecule, the IC50 at HDAC6 is greater than 100 µM; at HDAC8, greater than 100 µM; on HDAC1, greater than 100 µM; on HDAC2 it was greater than 100 µM; on HDAC3/NcoR2 complex, greater than 100 µM; on TwinStrep-GST-HDAC10, 0.398 µM. Besides, the pIC50 in data set [2] is less than 4.40; in data set [3], 4.50. In addition, the “HDAC10/6 fold selectivity (BRET)” value in data set [3] is greater than 1 fold.
As for `CN(CCNC(=O)CS)CCNC(=O)c1ccccc1` [DKFZ-825, N-(2-((2-(2-Mercaptoacetamido)ethyl)(methyl)amino)ethyl)benzamide], the IC50 on HDAC6 is 3.98 µM; on HDAC8 it was greater than 100 µM; on HDAC1 it was 12.6 µM; at HDAC2, 12.6 µM; at HDAC3/NcoR2 complex it was greater than 100 µM; at TwinStrep-GST-HDAC10, 0.0126 µM. Further, in [4], the “stability when exposed to air” value is on record as “form the disulfide when exposed to air”.
As to `CCCN(CCCC(=O)NO)CCC(=O)Nc1ccccc1` [DKFZ-716, 4-(Propyl(3-oxo-3-(phenylamino)propyl)amino)-N-hydroxybutanamide], the IC50 was 5.01 µM on HDAC6; 7.94 µM at HDAC8; 79.4 µM on HDAC1; greater than 200 µM on HDAC2; roughly 200 µM at HDAC3/NcoR2 complex; 0.316 µM on TwinStrep-GST-HDAC10. The results for the pIC50 in [2] and in data set [3] were less than 4.40 and 6.00, respectively. In addition, the “HDAC10/6 fold selectivity (BRET)” value in [3] is given as roughly 366 fold.
Turning to `COc1ccc(C(=O)NCCN(C)CCCC(=O)NO)c2ccccc12` [DKFZ-774, N-(2-((4-(Hydroxyamino)-4-oxobutyl)(methyl)amino)ethyl)-4-methoxy-1-naphthamide], the IC50 is 2.51 µM on HDAC6; 1.26 µM on HDAC8; 6.31 µM at HDAC1; 12.6 µM on HDAC2; greater than 100 µM on HDAC3/NcoR2 complex; 0.00316 µM at TwinStrep-GST-HDAC10. Also, the pIC50 is roughly 4.90 in data set [2] and 7.50 in data set [3]. Further, the “HDAC10/6 fold selectivity (BRET)” value in [3] worked out at 398 fold.

The values are drawn from patent US20220151962A1, “NOVEL INHIBITORS OF HISTONE DEACETYLASE 10” (Deutsches Krebsforschungszentrum, priority 2019, published 2022).
